Measurements as given in PMC10855879, “Formulation Studies with Cyclodextrins for Novel Selenium NSAID Derivatives” (International Journal of Molecular Sciences, 2024).
In brackets after ≈: the same amount, converted by molar mass. Entries after “also recorded” stand apart in the source; their conditions may differ. Like-named read-outs stand apart in the source and are kept apart here.

Tests used:
[1] = Water solubility by quantitative 1H-NMR in D2O, alone or with cyclodextrin; assay type: physicochemical; details: for solubility: 25 °C, thermodynamic from solid, 298 K; for Improvement of water solubility after exposure to β- and γ-CD (in words): complexes versus compounds alone
Method: For all the Se-NSAID derivatives, the formation of inclusion complexes either with β- or γ-CDs was evaluated by quantitative proton nuclear magnetic resonance (^1H-NMR) spectroscopy (Figures S1–S40 in Supplementary Materials). The election for such CDs is based on the fact that β-CD is one of the most frequently used CDs for encapsulating NSAIDs. Additionally, given the size of the studied molecules, a larger CD such as γ-CDs was also evaluated.
The experimental formation of inclusion complexes with either β-CD or γ-CD was evaluated via quantitative ^1H-NMR spectroscopy. This method is based on the consideration that the integration for a given signal that is selected as a marker for a given compound is proportional to its concentration. Consequently, solutions of 0.5 mL in D2O (≥99.85% in deuterated component) with an excess of each compound were prepared, along with either 4 mg of dimethyl sulfone (as internal standard) or with the corresponding CD at 10 mM. ^1H-NMR spectra were recorded at 298 K on a Bruker Avance Neo at a proton resonance frequency of 400 MHz. The solubilities were calculated considering the ratio between the area of the peaks belonging to the internal standard or the CDs and the different hydrogens of the Se-NSAID derivatives.

colon cancer = test system: colon cancer; set-up: method as in PMID 37759969; details: in vitro and in vivo; cited from earlier work
[2] = water, D2O, compound alone, dimethyl sulfone internal standard, read-out: Water Solubility, Compound
[3] = D2O with β-cyclodextrin, aqueous with cosolvent or surfactant or cyclodextrin, D2O, β-CD 10 mM, read-out: Water Solubility, Compound + β-CD
[4] = D2O with γ-cyclodextrin, aqueous with cosolvent or surfactant or cyclodextrin, D2O, γ-CD 10 mM, read-out: Water Solubility, Compound + γ-CD

Structure (SMILES)	solubility [1, 2]	solubility [1, 3]	solubility [1, 4]	Improvement of water solubility after exposure to β- and γ-CD (in words) [1]	Anticancer properties (in words) (colon cancer)	Increase in water solubility with β-CD ([1]; versus compound alone, D2O)	Increase in water solubility with γ-CD ([1]; versus compound alone, D2O)
COc1ccc2cc(C(C)C(=O)[Se]CCC#N)ccc2c1 (centres unmarked) [I.3e]	9.7 µM (≈ 3.36 µg/mL)	992 µM	273 µM	remarkable improvement; also recorded: remarkable increase; also recorded: almost two orders of magnitude			
COc1ccc2c(c1)c(CC(=O)[Se]CC(=O)O)c(C)n2C(=O)c1ccc(Cl)cc1 [I.4a]	22.4 µM (≈ 10.7 µg/mL)	56.5 µM	52.4 µM				
COC(=O)C[Se]C(=O)Cc1c(C)n(C(=O)c2ccc(Cl)cc2)c2ccc(OC)cc12 [I.4b]	12 µM (≈ 5.91 µg/mL)	157 µM	43.9 µM				
COc1ccc2c(c1)c(CC(=O)[Se]CC#N)c(C)n2C(=O)c1ccc(Cl)cc1 [I.4d]	20 µM (≈ 9.2 µg/mL)	45.3 µM	33.7 µM				
COc1ccc2c(c1)c(CC(=O)[Se]CCC#N)c(C)n2C(=O)c1ccc(Cl)cc1 [I.4e]	5.72 µM (≈ 2.71 µg/mL)	45.5 µM	42.1 µM				
CC(=O)Oc1ccccc1C(=O)[Se][Se]C(=O)c1ccccc1OC(C)=O [II.1]	8.43 µM (≈ 4.08 µg/mL)	101 µM	15.1 µM				
COc1ccc2c(c1)c(CC(=O)[Se][Se]C(=O)Cc1c(C)n(C(=O)c3ccc(Cl)cc3)c3ccc(OC)cc13)c(C)n2C(=O)c1ccc(Cl)cc1 [II.2]	0.132 µM (≈ 0.111 µg/mL)	7.96 µM	7.6 µM				
COc1ccc2cc([C@H](C)C(=O)[Se][Se]C(=O)[C@@H](C)c3ccc4cc(OC)ccc4c3)ccc2c1 [II.3]	0.605 µM (≈ 0.354 µg/mL)	0.219 µM	6.14 µM				
CC(C(=O)[Se][Se]C(=O)C(C)c1cccc(C(=O)c2ccccc2)c1)c1cccc(C(=O)c2ccccc2)c1 (centres unmarked) [II.4]	5.57 µM (≈ 3.52 µg/mL)	27 µM	17.7 µM				
CC(C)Cc1ccc(C(C)C(=O)[Se][Se]C(=O)C(C)c2ccc(CC(C)C)cc2)cc1 (centres unmarked) [II.5]	21.2 µM (≈ 11.4 µg/mL)	5420 µM	7500 µM	remarkable improvement; also recorded: remarkable increase; also recorded: almost two orders of magnitude	potent anticancer properties	up to 250 fold	≤ 350 fold
